Measured values as given in PubChem BioAssay (NCI).
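Protocol summary: plate cells (96-well), add compound at 5 concentrations, incubate 48 h, interpolate endpoints linearly. TGI denotes the concentration required for complete inhibition of growth.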

Legend:
Assay in all cases: NCI anticancer screen, dose series, 48 h
HCT-116 colon = tested on: HCT-116 colon
BT-549 breast = tested on: BT-549 breast
ACHN renal = tested on: ACHN renal
A549 NSCLC = tested on: A549 NSCLC
NCI-H522 lung = tested on: NCI-H522 lung
RXF 393 renal = tested on: RXF 393 renal
HT29 colon = tested on: HT29 colon
IGROV1 ovarian = tested on: IGROV1 ovarian
SK-MEL-28 melanoma = tested on: SK-MEL-28 melanoma
UACC-257 melanoma = tested on: UACC-257 melanoma
EKVX NSCLC = tested on: EKVX NSCLC
CCRF-CEM leukemia = tested on: CCRF-CEM leukemia
UO-31 renal = tested on: UO-31 renal
786-0 renal = tested on: 786-0 renal
SK-MEL-5 melanoma = tested on: SK-MEL-5 melanoma
HCT-15 colon = tested on: HCT-15 colon
KM12 colon = tested on: KM12 colon
SNB-19 CNS = tested on: SNB-19 CNS
DU-145 prostate = tested on: DU-145 prostate
MCF7 breast = tested on: MCF7 breast

Structure (SMILES)	TGI (HCT-116 colon)	TGI (BT-549 breast)	TGI (ACHN renal)	TGI (A549 NSCLC)	TGI (NCI-H522 lung)	TGI (RXF 393 renal)	TGI (HT29 colon)	TGI (IGROV1 ovarian)	TGI (SK-MEL-28 melanoma)	TGI (UACC-257 melanoma)	TGI (EKVX NSCLC)	TGI (CCRF-CEM leukemia)	TGI (UO-31 renal)	TGI (786-0 renal)	TGI (SK-MEL-5 melanoma)	TGI (HCT-15 colon)	TGI (KM12 colon)	TGI (SNB-19 CNS)	TGI (DU-145 prostate)	TGI (MCF7 breast)
Oc1cc(Br)cc2cccnc12	16.8 µM	98 µM	> 69 µM	> 87.2 µM	7.57 µM	30.4 µM	35 µM	8.22 µM	> 100 µM	6.93 µM	16.2 µM	4.61 µM	35.9 µM	38 µM	15.1 µM	> 100 µM	> 100 µM	> 100 µM	> 100 µM	
Cc1ccc2ccccc2c1NC1=NCCO1	> 100 µM		> 100 µM	> 100 µM		> 100 µM	> 100 µM	> 100 µM	> 100 µM	> 100 µM	> 100 µM	> 100 µM	> 100 µM	> 100 µM	> 100 µM	> 100 µM	> 100 µM	> 100 µM	> 100 µM	> 100 µM
O=C(NC(CS)C(=O)O)c1cccc2c(=O)c3ccccc3[nH]c12 (stereo unspecified)	> 100 µM		> 100 µM	> 100 µM	> 100 µM		> 100 µM	> 100 µM	> 100 µM		> 100 µM		> 100 µM	> 100 µM	> 100 µM	> 100 µM	> 100 µM	> 100 µM	> 100 µM	> 100 µM
CC(=O)N1OC(C)CC1Nc1ccc(Br)cc1 (stereo unspecified)	> 100 µM	> 100 µM	> 100 µM	> 100 µM		> 100 µM	> 100 µM	> 100 µM			> 100 µM	> 100 µM	> 100 µM	> 100 µM	> 100 µM	> 100 µM	> 100 µM	> 100 µM	> 100 µM	> 100 µM
COC(=O)N1CCc2c(nc(N(C)CCO)[nH]c2=O)C1	> 100 µM		> 100 µM	> 100 µM	> 100 µM	> 100 µM	> 100 µM	> 100 µM	> 100 µM	> 100 µM	> 100 µM	> 100 µM	> 100 µM	> 100 µM	> 100 µM	> 100 µM	> 100 µM	> 100 µM		
CC(=O)OC[C@]1(O)CC[C@@]23CC1C[C@@H]2CCC1C(C)(C)CCC[C@@]13C (stereo partly specified)	24.2 µM		29.3 µM	29.6 µM	14.7 µM	22.9 µM	25.7 µM	34.5 µM	28.1 µM	29.4 µM		25.7 µM	29.9 µM	31.6 µM	28.2 µM	30 µM	26.1 µM	27.6 µM		
COc1ccc(C(=O)Cn2c(C(=O)/C=C/c3ccco3)nc3ccccc32)cc1	> 100 µM	> 100 µM	> 100 µM	> 100 µM		> 100 µM	> 100 µM	> 100 µM	> 100 µM	> 100 µM		> 100 µM	> 100 µM	> 100 µM	> 100 µM	> 100 µM	> 100 µM	> 100 µM	> 100 µM	> 100 µM
